Experimental findings from patent US8568973B2, “Cell-signaling assays” (Molecular Devices, LLC, priority 1999, dated 2013) are described below.

“Also recorded” adds a separate entry of the source.

In this test the test system is T47D cells. Briefly: Whole-cell cAMP luminescence polarization assay of modulators (FIG. 13). Type of test: cell-based. As for the experimental part: • (a) Preparation of 1:75 cAMP antibody working stock. Dilute the 300× cAMP antibody stock 1:75 in cAMP assay buffer (0.05 M HEPES, pH 7.5, 150 mM NaCl, 0.1% bovine gamma globulin) (e.g., by adding 14 μL of the 300× cAMP antibody stock to 1036 μL of cAMP assay buffer). 10 μL of this working stock solution will be added to the assay plate, as indicated in the plate layout in FIG. 9. • (b) Preparation of cAMP tracer working stock. Dilute the 500× cAMP tracer stock 1:125 in cAMP assay buffer (e.g., by adding 10 μL of the 500× cAMP tracer stock to 1240 μL of cAMP assay buffer). 10 μL of this working stock solution will be added to the assay plate, as indicated in the plate layout in FIG. 9. • (c) Preparation of cAMP calibration curve. Dilute the cAMP calibrator 1:25 in cAMP assay buffer (e.g., by adding 10 μL cAMP calibrator to 240 μL cAMP assay buffer) to give 10 μM cAMP calibrator or 400 pmol in final assay. Prepare seven 1:3 serial dilutions to give 3.33, 1.11, 0.37, 0.12, 0.041, 0.014, and 0.005 μM cAMP (133 to 0.125 pmol in final assay). • (d) Preparation of samples. […] A plastic plate cover may be used to prevent possible evaporation, but care should be taken with plastic plate sealers, which may introduce undesirable background fluorescence. • (e) Read plate using a light detection device capable of generating and detecting polarized light. […]

Consider `CC(C)NCC(O)c1ccc(O)c(O)c1` (centres unmarked) [isoproterenol], for which the “cAMP production (cAMP levels)” value (cultured adherent T47D cells, whole cell preparation, forskolin protocol 20 μM final, 15 minutes at 37° C.) is on record as “stimulates cAMP production; also recorded: stimulated”.

Regarding `CC(C)NCC(O)COc1cccc2ccccc12` (centres unmarked) [propranolol], the “effect on isoproterenol-stimulated cAMP production” value (cultured T47D cells, endogenous beta receptors, antagonist added to isoproterenol stimulation) is “reversed; also recorded: inhibited”.
